Patent EP4596574A1, “GLP-1/GCG/GIP TRIPLE-RECEPTOR AGONIST AND USE THEREOF” (Sunshine Lake Pharma Co., Ltd., priority 2022, dated 2024)
Marks after values point to notes of the source that are not given here.

Key:
[1] = In vivo efficacy evaluation in db/db mouse model (blood glucose); parameters: species or system db/db mice
Procedure: Blood glucose was tested before each administration.

[2] = target: T1, GCGR (Homo sapiens, UniProt P47871); assay: In vitro cell activity, cAMP production in HEK293 cells expressing GCGR; format: cell-based
T1 construct: expressed in transfected cells; host or cells: HEK293 (HEK293-GCGR)
T1 sequence (P47871 26-477, species assumed): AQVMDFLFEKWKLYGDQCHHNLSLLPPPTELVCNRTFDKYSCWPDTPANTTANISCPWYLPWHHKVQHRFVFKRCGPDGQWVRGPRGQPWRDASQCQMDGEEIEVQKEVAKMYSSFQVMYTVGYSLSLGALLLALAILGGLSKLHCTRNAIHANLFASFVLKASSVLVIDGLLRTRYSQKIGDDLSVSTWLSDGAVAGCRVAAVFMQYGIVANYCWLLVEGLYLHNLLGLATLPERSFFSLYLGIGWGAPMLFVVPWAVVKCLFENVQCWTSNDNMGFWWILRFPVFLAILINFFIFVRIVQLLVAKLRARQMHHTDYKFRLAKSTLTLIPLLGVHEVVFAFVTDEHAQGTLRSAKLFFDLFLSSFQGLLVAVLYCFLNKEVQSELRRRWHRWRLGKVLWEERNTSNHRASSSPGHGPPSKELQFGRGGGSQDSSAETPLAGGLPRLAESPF
Method in brief: (§1)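 HEK293 transfectants, 4×10^5 cells/mL, 384-well. Detection: cAMP-d2 + anti-cAMP cryptate 1:1, RT 1 h dark or 4 °C o/n. Read 665/620 nm; 4-parameter nonlinear fit → EC50.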

[3] = target: T2, GIPR (Homo sapiens, UniProt P48546); assay: In vitro cell activity, cAMP production in HEK293 cells expressing GIPR; format: cell-based
T2 construct: expressed in transfected cells; host or cells: HEK293 (HEK293-GIPR)
T2 sequence (P48546 22-466): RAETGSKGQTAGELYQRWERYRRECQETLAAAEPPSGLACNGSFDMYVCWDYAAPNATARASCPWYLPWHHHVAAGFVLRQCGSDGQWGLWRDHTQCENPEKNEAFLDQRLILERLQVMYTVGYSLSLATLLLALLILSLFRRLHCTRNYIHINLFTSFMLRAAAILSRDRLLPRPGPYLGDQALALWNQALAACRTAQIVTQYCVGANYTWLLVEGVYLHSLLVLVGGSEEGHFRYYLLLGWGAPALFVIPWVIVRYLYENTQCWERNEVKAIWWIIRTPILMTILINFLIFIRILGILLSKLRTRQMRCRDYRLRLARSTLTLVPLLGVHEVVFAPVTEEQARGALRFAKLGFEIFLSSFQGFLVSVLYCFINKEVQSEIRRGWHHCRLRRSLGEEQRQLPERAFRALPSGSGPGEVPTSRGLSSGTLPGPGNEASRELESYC
Method in brief: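 HEK293 cells expressing human GIPR, thawed and diluted to 4×10^5 cells/mL, are stimulated with test compound. cAMP is measured by HTRF competition between cAMP-d2 and anti-cAMP cryptate. EC50 comes from a four-parameter nonlinear fit of signal ratio against concentration.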

[4] = target: T3, GLP-1R (Homo sapiens, UniProt P43220); assay: In vitro cell activity, cAMP production in HEK293 cells expressing GLP-1R; format: cell-based
T3 construct: expressed in transfected cells; host or cells: HEK293 (HEK293-GLP-1R)
T3 sequence (P43220 24-463, species assumed): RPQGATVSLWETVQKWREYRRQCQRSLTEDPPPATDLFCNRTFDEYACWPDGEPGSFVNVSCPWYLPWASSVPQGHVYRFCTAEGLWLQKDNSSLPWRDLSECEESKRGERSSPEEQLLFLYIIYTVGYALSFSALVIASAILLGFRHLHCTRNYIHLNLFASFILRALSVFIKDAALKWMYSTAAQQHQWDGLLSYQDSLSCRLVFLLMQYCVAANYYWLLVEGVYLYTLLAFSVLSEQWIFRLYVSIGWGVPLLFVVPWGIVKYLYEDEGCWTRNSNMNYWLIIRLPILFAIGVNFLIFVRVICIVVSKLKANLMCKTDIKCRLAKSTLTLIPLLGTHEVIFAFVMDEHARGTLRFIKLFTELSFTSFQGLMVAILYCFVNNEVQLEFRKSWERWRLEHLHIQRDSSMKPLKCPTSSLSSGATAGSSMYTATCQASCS
Method in brief: as §1

[5] = Long-term repeated administration in diet-induced obese C57BL/6 mice (DIO); format: in vivo, C57/BL6 mice
[6] = 10 nmol/kg s.c. once every 3 days, D7
[7] = 10 nmol/kg s.c. once every 3 days, D10
[8] = 10 nmol/kg s.c. once every 3 days, D13
[9] = 10 nmol/kg s.c. once every 3 days, D16
[10] = 10 nmol/kg s.c. once every 3 days, D19
[11] = 10 nmol/kg s.c. once every 3 days, D22
[12] = 10 nmol/kg s.c. once every 3 days, D25
[13] = 10 nmol/kg s.c. once every 3 days, D28
[14] = after 4 weeks of administration
[15] = after 4 weeks of administration, same dose
[16] = long-term administration 10 nmol/kg, 72 h after the last administration
[17] = long-term administration 10 nmol/kg, blood biochemical index

Q: With CC[C@H](C)[C@H](NC(=O)[C@H](Cc1ccccc1)NC(=O)[C@H](CCC(=O)O)NC(=O)[C@H](CCCNC(=N)N)NC(=O)[C@H](CCC(N)=O)NC(=O)[C@H](CCCNC(=N)N)NC(=O)[C@H](CCCCNC(=O)COCCOCCNC(=O)CC[C@H](NC(=O)CCCCCCCCCCCCCCCCC(=O)O)C(=O)O)NC(=O)[C@H](CCC(=O)O)NC(=O)[C@H](CC(=O)O)NC(=O)[C@H](CC(C)C)NC(=O)[C@H](CC(C)C)NC(=O)[C@@H](NC(=O)[C@H](CO)NC(=O)[C@H](Cc1ccc(O)cc1)NC(=O)[C@H](CC(=O)O)NC(=O)[C@H](CO)NC(=O)[C@@H](NC(=O)[C@](C)(Cc1ccccc1F)NC(=O)[C@@H](NC(=O)CNC(=O)[C@H](Cc1c[nH]cn1)NC(=O)C(C)(C)NC(=O)[C@@H](N)Cc1ccc(O)cc1)[C@@H](C)O)[C@@H](C)O)[C@@H](C)CC)C(=O)N[C@@H](CCC(=O)O)C(=O)N[C@@H](Cc1c[nH]c2ccccc12)C(=O)N[C@@H](CC(C)C)C(=O)N[C@@H](CC(C)C)C(=O)N[C@@H](C)C(=O)NCC(=O)NCC(=O)N1CCC[C@H]1C(=O)N[C@@H](CO)C(=O)N[C@@H](CO)C(=O)NCC(=O)N[C@@H](C)C(=O)N1CCC[C@H]1C(=O)N1CCC[C@H]1C(=O)N1CCC[C@H]1C(=O)N[C@@H](CO)C(=O)O [HEC-PT77] as the compound, how does the “blood glucose after administration” value ([1]; db/db mice, 10 nmol/kg) read?
A: significantly reduce blood glucose

Q: And the “Random blood glucose (mM) D0” value ([1]; db/db mice, 10 nmol/kg s.c. once every three days, D0 (before first dose))?
A: 26.6 ± 4.2 mM

Q: And the “Random blood glucose (mM) D3” value ([1]; db/db mice, 10 nmol/kg s.c. once every three days, D3)?
A: 15.8 ± 4.0 mM

Q: What about the “Random blood glucose (mM) D4” value ([1]; db/db mice, 10 nmol/kg s.c. once every three days, D4) of the same compound?
A: 17.8 ± 5.9 mM

Q: What about the “Random blood glucose (mM) D5” value ([1]; db/db mice, 10 nmol/kg s.c. once every three days, D5) of the same compound?
A: 21.5 ± 5.6 mM

Q: And the “Random blood glucose (mM) D6” value ([1]; db/db mice, 10 nmol/kg s.c. once every three days, D6)?
A: 24.1 ± 4.6 mM

Q: And the “Random blood glucose (mM) D7” value ([1]; db/db mice, 10 nmol/kg s.c. once every three days, D7)?
A: 21.9 ± 3.9 mM

Q: And the “Random blood glucose (mM) D10” value ([1]; db/db mice, 10 nmol/kg s.c. once every three days, D10)?
A: 13.4 ± 5.4 mM

Q: What about the “Random blood glucose (mM) D13” value ([1]; db/db mice, 10 nmol/kg s.c. once every three days, D13) of the same compound?
A: 15.7 ± 5.4 mM

Q: What about the “Random blood glucose (mM) D16” value ([1]; db/db mice, 10 nmol/kg s.c. once every three days, D16) of the same compound?
A: 12.7 ± 6.1 mM

Q: What about the “Random blood glucose (mM) D19” value ([1]; db/db mice, 10 nmol/kg s.c. once every three days, D19) of the same compound?
A: 15.5 ± 4.6 mM

Q: And the “Random blood glucose (mM) D22” value ([1]; db/db mice, 10 nmol/kg s.c. once every three days, D22)?
A: 15.6 ± 6.1 mM

Q: And the “Random blood glucose (mM) D25” value ([1]; db/db mice, 10 nmol/kg s.c. once every three days, D25)?
A: 14.2±5.1^a mM

Q: And the “Random blood glucose (mM) 6 h” value ([1]; db/db mice, 10 nmol/kg s.c., 6 h)?
A: 15.9 ± 5.9 mM

Q: What about the “Random blood glucose (mM) 24 h” value ([1]; db/db mice, 10 nmol/kg s.c., 24 h) of the same compound?
A: 8.1 ± 4.5 mM

Q: What about the “Random blood glucose (mM) 48 h” value ([1]; db/db mice, 10 nmol/kg s.c., 48 h) of the same compound?
A: 11.1 ± 6.2 mM

Q: What about the “time at which blood glucose levels reached the lowest level” value ([1]; db/db mice, 10 nmol/kg, after administration) of the same compound?
A: about 24 hours

Q: And the “blood glucose lowering after long-term administration compared with LY3298176” value ([1]; db/db mice, long-term repeated administration)?
A: not inferior to the positive control LY3298176

Q: And the “blood glucose reducing effect after administration compared with LY3298176” value ([1]; db/db mice, same dose 10 nmol/kg)?
A: slightly better than the positive control LY3298176

Q: What about the “blood glucose level after long-term administration” value ([1]; type II diabetes model db/db mice) of the same compound?
A: significantly improve the blood glucose level

Q: And the EC50 [2]?
A: 0.144 nM

Q: What about the EC50 [3] of the same compound?
A: 0.0227 nM

Q: What about the EC50 [4] of the same compound?
A: 0.0656 nM

Q: And the “Cumulative food intake (g/pcs) D7” value [5, 6]?
A: 8.7 g/pcs

Q: And the “Weight gain rate (%) D7” value [5, 6]?
A: -14.9±3.8%

Q: And the “Cumulative food intake (g/pcs) D10” value [5, 7]?
A: 11.4 g/pcs

Q: What about the “Weight gain rate (%) D10” value [5, 7] of the same compound?
A: -20.9±4.0%

Q: And the “Cumulative food intake (g/each) D13” value [5, 8]?
A: 14.4 g/each

Q: And the “Weight gain rate (%) D13” value [5, 8]?
A: -24.7±5.5%

Q: What about the “Cumulative food intake (g/each) D16” value [5, 9] of the same compound?
A: 19.1 g/each

Q: What about the “Weight gain rate (%) D16” value [5, 9] of the same compound?
A: -26.6±5.6%

Q: And the “Cumulative food intake (g/each) D19” value [5, 10]?
A: 24.7 g/each

Q: And the “Weight gain rate (%) D19” value [5, 10]?
A: -27.7±5.5%

Q: What about the “Cumulative food intake (g/each) D22” value [5, 11] of the same compound?
A: 30.6 g/each

Q: And the “Weight gain rate (%) D22” value [5, 11]?
A: -28.9±6.4%

Q: What about the “Cumulative food intake (g/each) D25” value [5, 12] of the same compound?
A: 36.7 g/each

Q: And the “Weight gain rate (%) D25” value [5, 12]?
A: -31.2±6.9%

Q: And the “Cumulative food intake (g/each) D28” value [5, 13]?
A: 43.7 g/each

Q: And the “Weight gain rate (%) D28” value [5, 13]?
A: -30.4±5.2%

Q: What about the “Cumulative food intake (g/each) D30” value ([5]; 10 nmol/kg s.c. once every 3 days, D30) of the same compound?
A: 47.5^a g/each

Q: And the “Weight gain rate (%) D31” value ([5]; 10 nmol/kg s.c. once every 3 days, D31)?
A: -30.2±4.9^a %

Q: What about the “Cumulative food intake (g/pcs) D0” value ([5]; 10 nmol/kg s.c., D0) of the same compound?
A: 2.4 g/pcs

Q: And the “Weight gain rate (%) D0” value ([5]; 10 nmol/kg s.c., D0)?
A: 0.0±0.0%

Q: What about the “Cumulative food intake (g/pcs) D1” value ([5]; 10 nmol/kg s.c., D1) of the same compound?
A: 2.8 g/pcs

Q: And the “Weight gain rate (%) D1” value ([5]; 10 nmol/kg s.c., D1)?
A: -5.5±0.7%

Q: And the “Cumulative food intake (g/pcs) D2” value ([5]; 10 nmol/kg s.c., D2)?
A: 3.6 g/pcs

Q: What about the “Weight gain rate (%) D2” value ([5]; 10 nmol/kg s.c., D2) of the same compound?
A: -7.7±1.9%

Q: And the “Cumulative food intake (g/pcs) D3” value ([5]; 10 nmol/kg s.c., D3)?
A: 4.7 g/pcs

Q: What about the “Weight gain rate (%) D3” value ([5]; 10 nmol/kg s.c., D3) of the same compound?
A: -8.4±0.9%

Q: And the “Cumulative food intake (g/pcs) D4” value ([5]; 10 nmol/kg s.c., D4)?
A: 6.3 g/pcs

Q: What about the “Weight gain rate (%) D4” value ([5]; 10 nmol/kg s.c., D4) of the same compound?
A: -7.1±3.5%

Q: And the “liver function and blood lipids of DIO mice” value [5, 14]?
A: significantly improved the liver function and blood lipids

Q: What about the “weight loss and food intake inhibition effects compared with Semaglutide” value [5, 14] of the same compound?
A: superior to the positive drug Semaglutide

Q: What about the “food intake inhibition effect compared with LY3298176” value [5, 15] of the same compound?
A: comparable to those of the same dose of the positive drug LY3298176

Q: And the “weight loss effect compared with LY3298176” value [5, 15]?
A: comparable to those of the same dose of the positive drug LY3298176

Q: And the Liver index/% [5, 16]?
A: 2.7±0.0^a %

Q: What about the Liver/g [5, 16] of the same compound?
A: 0.9±0.1^a g

Q: What about the Weight/g [5, 16] of the same compound?
A: 31.5±3.2^a g

Q: And the “ALT (U/L)” value [5, 17]?
A: 29.1±5.8^a U/L

Q: And the “AST (U/L)” value [5, 17]?
A: 112.0±20.9^a U/L

Q: And the “CHOL (mmol/L)” value [5, 17]?
A: 3.2±0.5^a mmol/L

Q: What about the “TRIGL (mmol/L)” value [5, 17] of the same compound?
A: 0.6±0.1^a mmol/L
